Data as given in patent US20250026721A1, “COMPOUNDS AND METHODS FOR MODULATING RAS-PI3K” (Vividion Therapeutics, Inc., priority 2023, published 2025).

target: T1, PIK3CA (Homo sapiens, UniProt P42336); assay: In vitro ELISA target engagement assay for PIK3CA in Jurkat cellular lysate (competition with PIK3CA Biotin Probe); type: binding; details: 1 hour at rt, then 500 nM PIK3CA Biotin Probe, read-out: Elisa Target Engagement Assay (TE50)
T1 construct: endogenous in cells; host or cells: Jurkat cell lysate
Protocol: Example 3. In Vitro ELISA Target Engagement Assay for […] Engagement of compounds on PIK3CA were assessed in Jurkat cellular lysate via a sandwich ELISA. A solution of PIK3CA Biotin Probe was generated at 10 mM and used in the biological testing. […] Treatment Protocol: Jurkat cellular lysate was generated from frozen cell pellets. Cells were thawed on ice and resuspended in cold Dulbecco's phosphate buffered saline (DPBS) (12 mL/300 e^6 cells) then lysed by probe sonication (12×3 second pulses). Jurkat lysate was plated (50 μl/well) in Armadillo 96 well PCR plates (Thermo Fisher catalog number AB2396). The lysate was treated with serial dilutions of test compounds up to 200 μM and incubated for 1 hour at rt. Following compound incubation, PIK3CA Biotin Probe was added to a final concentration of 500 nM, and lysate was mixed by pipetting gently and incubated for an additional 1 hour at rt. The mixture was then diluted in 75 μL Dilution buffer. The mixture was centrifuged for 5 minutes at 4122 g and stored at −80° C. until ELISA TE detection. ELISA TE Detection: Quantification of PIK3CA TE was initiated by coating of the ELISA plate (Thermo Scientific White 384-Well Immuno plates; Thermo Fisher catalog number 460372). The capture antibody was diluted in plating buffer (1:83) and added to the ELISA plate, 20 μl/well, overnight at 4° C. The plate was then washed twice with PBST, 100 μl/well, and blocked with addition of blocking buffer (100 μl/well, 1 hour at rt). During block, treated and probe labeled lysate was thawed. After Block, the block buffer was removed and the thawed lysate was added to the ELISA plate, 30 μl/well, for 1.5 hours at rt. Following lysate incubation, the assay plate was washed 3 times with PBST, 100 μl/well. The Neutravidin-HRP was then diluted (1:500 in dilution buffer) and added for 1 hour at rt, 20 μl/well. Following incubation, the assay plate was washed 4 times with PBST, 100 μl/well, HRP substrate was added to plate, 20 μl/well and luminescence signal was read (Clariostar Plate Reader). For each compound the potency of target engagement (TE50) was determined using Graphpad Prism.

T1 sequence (P42336 whole entry): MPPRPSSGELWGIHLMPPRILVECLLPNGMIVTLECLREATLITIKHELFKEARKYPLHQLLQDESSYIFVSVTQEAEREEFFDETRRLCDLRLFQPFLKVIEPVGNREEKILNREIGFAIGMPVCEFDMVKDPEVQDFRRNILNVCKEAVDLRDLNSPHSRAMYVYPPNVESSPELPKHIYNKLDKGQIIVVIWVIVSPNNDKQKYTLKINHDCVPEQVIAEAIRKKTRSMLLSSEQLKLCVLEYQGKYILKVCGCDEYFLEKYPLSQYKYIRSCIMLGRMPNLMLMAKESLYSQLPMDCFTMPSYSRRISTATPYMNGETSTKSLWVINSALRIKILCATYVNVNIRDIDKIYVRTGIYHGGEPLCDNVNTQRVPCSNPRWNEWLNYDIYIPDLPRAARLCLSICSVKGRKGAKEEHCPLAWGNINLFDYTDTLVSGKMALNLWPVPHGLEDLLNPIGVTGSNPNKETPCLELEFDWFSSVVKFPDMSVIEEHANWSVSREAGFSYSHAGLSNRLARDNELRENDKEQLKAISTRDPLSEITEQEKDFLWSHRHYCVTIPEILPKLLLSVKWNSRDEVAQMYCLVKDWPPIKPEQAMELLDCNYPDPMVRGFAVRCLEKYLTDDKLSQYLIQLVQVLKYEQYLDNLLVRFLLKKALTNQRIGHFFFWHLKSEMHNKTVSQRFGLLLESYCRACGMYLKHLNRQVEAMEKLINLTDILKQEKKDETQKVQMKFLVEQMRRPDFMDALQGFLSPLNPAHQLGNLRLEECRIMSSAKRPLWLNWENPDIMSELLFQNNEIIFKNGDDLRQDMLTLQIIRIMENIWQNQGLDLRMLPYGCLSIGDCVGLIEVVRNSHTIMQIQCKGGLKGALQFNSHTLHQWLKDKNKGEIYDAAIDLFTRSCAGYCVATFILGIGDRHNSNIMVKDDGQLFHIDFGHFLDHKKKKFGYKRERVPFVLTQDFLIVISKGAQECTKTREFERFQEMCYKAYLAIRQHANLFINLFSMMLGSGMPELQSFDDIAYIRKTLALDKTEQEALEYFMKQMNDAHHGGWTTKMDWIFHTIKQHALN
T1 sequence (P27986 whole entry partner): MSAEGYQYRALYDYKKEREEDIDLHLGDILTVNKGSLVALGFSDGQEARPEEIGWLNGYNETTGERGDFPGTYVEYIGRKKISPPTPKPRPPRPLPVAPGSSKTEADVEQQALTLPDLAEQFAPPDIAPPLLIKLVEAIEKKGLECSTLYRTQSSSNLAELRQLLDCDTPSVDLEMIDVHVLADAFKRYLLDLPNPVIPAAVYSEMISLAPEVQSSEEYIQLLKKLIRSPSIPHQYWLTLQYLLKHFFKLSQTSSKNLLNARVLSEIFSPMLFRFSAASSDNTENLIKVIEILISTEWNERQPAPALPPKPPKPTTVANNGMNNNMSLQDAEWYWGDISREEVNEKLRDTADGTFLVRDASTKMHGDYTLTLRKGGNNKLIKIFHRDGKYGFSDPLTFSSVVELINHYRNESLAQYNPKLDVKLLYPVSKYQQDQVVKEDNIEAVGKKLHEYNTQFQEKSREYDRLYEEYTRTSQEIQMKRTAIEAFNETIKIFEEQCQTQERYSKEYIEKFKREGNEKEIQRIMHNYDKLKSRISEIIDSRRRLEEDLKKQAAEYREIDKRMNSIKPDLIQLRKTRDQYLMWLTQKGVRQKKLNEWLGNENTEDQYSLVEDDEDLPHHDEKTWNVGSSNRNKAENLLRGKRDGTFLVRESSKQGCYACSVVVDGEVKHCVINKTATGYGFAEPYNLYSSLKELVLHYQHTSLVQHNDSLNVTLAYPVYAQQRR

Compound | IC50 [nM]
CC(C)OC(=O)N1C[C@H](c2ccccc2Cl)[C@H](C(=O)N2CCC(F)(C(=O)N[C@H](C)/C=C\S(C)(=O)=O)CC2)C1 [Compound 199, isopropyl (3S,4S)-3-(2-chlorophenyl)-4-(4-fluoro-4-(((R,Z)-4-(methylsulfonyl)but-3-en-2-yl)carbamoyl)piperidine-1-carbonyl) pyrrolidine-1-carboxylate] | 900
CC(C)OC(=O)N1C[C@H](C(=O)N2CCC(F)(C(=O)N[C@H](C)/C=C\S(C)(=O)=O)CC2)[C@H](c2ccccc2Cl)C1 [Compound 159, isopropyl(3R,4R)-3-(2-chlorophenyl)-4-(4-fluoro-4-(((R,Z)-4-(methylsulfonyl)but-3-en-2-yl)carbamoyl)piperidine-1-carbonyl)pyrrolidine-1-carboxylate] | 980
CCOCc1cccc(-c2cc(Cl)ccc2S(=O)(=O)N2CCC(F)(C(=O)N[C@@H](C)/C=C\S(C)(=O)=O)CC2)c1 [Compound 17, (S,Z)-1-((5-chloro-3′-(ethoxymethyl)-[1,1′-biphenyl]-2-yl)sulfonyl)-4-fluoro-N-(4-(methylsulfonyl)but-3-en-2-yl)piperidine-4-carboxamide] | 760
C[C@H](/C=C\S(C)(=O)=O)NC(=O)C1(F)CCN(C(=O)[C@H]2CN(C(=O)c3ccccc3)C[C@H]2c2ccccc2Cl)CC1 [Compound 162, 1-((3R,4R)-1-benzoyl-4-(2-chlorophenyl)pyrrolidine-3-carbonyl)-4-fluoro-N-((R,Z)-4-(methylsulfonyl)but-3-en-2-yl)piperidine-4-carboxamide] | 770
C[C@H](/C=C\S(C)(=N)=O)NC(=O)C1(F)CCN(S(=O)(=O)c2ccc(Br)cc2-c2ccccc2Cl)CC1 (mixture of isomers) [Compound 73, 1-((5-bromo-2′-chloro-[1,1′-biphenyl]-2-yl)sulfonyl)-4-fluoro-N-((2R,Z)-4-(S-methylsulfonimidoyl)but-3-en-2-yl)piperidine-4-carboxamide] | 304
C[C@H](/C=C\[S@](C)(=N)=O)NC(=O)C1(F)CCN(S(=O)(=O)c2ccc(Br)cc2-c2ccccc2Cl)CC1 (single isomer, unassigned) [Compound 74, 1-((5-bromo-2′-chloro-[1,1′-biphenyl]-2-yl)sulfonyl)-4-fluoro-N-((R,Z)-4-((*R)-S-methylsulfonimidoyl)but-3-en-2-yl)piperidine-4-carboxamide] | 410
C[C@H](/C=C\S(C)(=O)=O)NC(=O)C1(F)CCN(C(=O)[C@H]2CCN(CC(F)(F)F)C[C@@H]2c2ccccc2Cl)CC1 (single isomer, unassigned) [Compound 307, 1-((3*S,4*S)-3-(2-chlorophenyl)-1-(2,2,2-trifluoroethyl)piperidine-4-carbonyl)-4-fluoro-N-((R,Z)-4-(methylsulfonyl)but-3-en-2-yl)piperidine-4-carboxamide] | 845
COc1ccc(S(=O)(=O)N2CCC(F)(C(=O)N[C@H](C)/C=C/C(=O)N3CC(F)(F)C3)CC2)c(-c2ccccc2Cl)c1 [Compound 137, (R,E)-1-((2′-chloro-5-methoxy-[1,1′-biphenyl]-2-yl)sulfonyl)-N-(5-(3,3-difluoroazetidin-1-yl)-5-oxopent-3-en-2-yl)-4-fluoropiperidine-4-carboxamide] | 380
C[C@H](/C=C\S(C)(=O)=O)NC(=O)C1(F)CCN(S(=O)(=O)c2ccc(Br)cc2-c2cccc(F)c2Cl)CC1 [Compound 52, (R,Z)-1-((5-bromo-2′-chloro-3′-fluoro-[1,1′-biphenyl]-2-yl)sulfonyl)-4-fluoro-N-(4-(methylsulfonyl)but-3-en-2-yl)piperidine-4-carboxamide] | 140
C[C@H](/C=C\S(C)(=O)=O)NC(=O)C1(F)CCN(C(=O)[C@H]2CN(C(=O)C(C)(C)C)C[C@H]2c2ccccc2Cl)CC1 [Compound 161, 1-((3R,4R)-4-(2-chlorophenyl)-1-pivaloylpyrrolidine-3-carbonyl)-4-fluoro-N-((R,Z)-4-(methylsulfonyl)but-3-en-2-yl)piperidine-4-carboxamide] | 800
C[C@H](/C=C\S(C)(=O)=O)NC(=O)C1(F)CCN(S(=O)(=O)c2ccc(Br)cc2-c2ccc(F)cc2Cl)CC1 [Compound 50, (R,Z)-1-((5-bromo-2′-chloro-4′-fluoro-[1,1′-biphenyl]-2-yl)sulfonyl)-4-fluoro-N-(4-(methylsulfonyl)but-3-en-2-yl)piperidine-4-carboxamide] | 319
C[C@H](/C=C\S(C)(=O)=O)NC(=O)C1(F)CCN(S(=O)(=O)c2ccc(CCO)cc2-c2ccccc2Cl)CC1 [Compound 128, (R,Z)-1-((2′-chloro-5-(2-hydroxyethyl)-[1,1′-biphenyl]-2-yl)sulfonyl)-4-fluoro-N-(4-(methylsulfonyl)but-3-en-2-yl)piperidine-4-carboxamide] | 280
C[C@@H]1C[C@](F)(C(=O)NC/C=C\C(=O)N2CC(F)(F)C2)CCN1C(=O)[C@H]1COC(C)(C)C[C@@H]1c1ccccc1Cl (single isomer, unassigned) [Compound 293, (2*R,4*S)-1-((3*R,4*S)-4-(2-chlorophenyl)-6,6-dimethyltetrahydro-2H-pyran-3-carbonyl)-N-((Z)-4-(3,3-difluoroazetidin-1-yl)-4-oxobut-2-en-1-yl)-4-fluoro-2-methylpiperidine-4-carboxamide] | 820
COc1ccc(S(=O)(=O)N2CCC(OC)(C(=O)N[C@H](C)/C=C\S(C)(=O)=O)CC2)c(-c2ccccc2Cl)c1 [Compound 146, 1-[2-(2-chlorophenyl)-4-methoxy-phenyl]sulfonyl-4-methoxy-N—[(Z,1R)-1-methyl-3-methylsulfonyl-allyl]piperidine-4-carboxamide] | 610
C[C@H](/C=C/C(=O)N1CC(F)(F)C1)NC(=O)[C@]1(F)CCN(S(=O)(=O)c2ccc(C(F)(F)F)cc2-c2ccccc2Cl)[C@H](C)C1 [Compound 152, (2R,4S)-1-((2′-chloro-5-(trifluoromethyl)-[1,1′-biphenyl]-2-yl)sulfonyl)-N-((R,E)-5-(3,3-difluoroazetidin-1-yl)-5-oxopent-3-en-2-yl)-4-fluoro-2-methylpiperidine-4-carboxamide] | 450
COC[C@H](/C=C\S(C)(=O)=O)NC(=O)C1(F)CCN(S(=O)(=O)c2ccc(Br)cc2-c2ccccc2Cl)CC1 [Compound 247, (S,Z)-1-((5-bromo-2′-chloro-[1,1′-biphenyl]-2-yl)sulfonyl)-4-fluoro-N-(1-methoxy-4-(methylsulfonyl)but-3-en-2-yl)piperidine-4-carboxamide] | 410
CCC(F)(F)CN1C[C@H](C(=O)N2CCC(F)(C(=O)N[C@H](C)/C=C\S(C)(=O)=O)CC2)[C@H](c2ccccc2Cl)C1 [Compound 178, 1-((3R,4R)-4-(2-chlorophenyl)-1-(2,2-difluorobutyl)pyrrolidine-3-carbonyl)-4-fluoro-N-((R,Z)-4-(methylsulfonyl)but-3-en-2-yl)piperidine-4-carboxamide] | 540
COc1ccc(S(=O)(=O)N2CC[C@](F)(C(=O)N[C@H](C)/C=C\S(C)(=O)=O)C[C@H]2C)c(-c2ccccc2Cl)c1 (single isomer, unassigned) [Compound 147, (2*R,4*R)-1-((2′-chloro-5-methoxy-[1,1′-biphenyl]-2-yl)sulfonyl)-4-fluoro-2-methyl-N-((R,Z)-4-(methylsulfonyl)but-3-en-2-yl)piperidine-4-carboxamide] | 390
